We go through two molecules from patent US9808456B2, “Piperazine thiazole derivatives useful in the treatment of tauopathies such as Alzheimer's disease” (REMYND NV, priority 2011, dated 2017).

One series has as its system M17_3TAU(P301L) cells. Nature of the series: Neuroblastoma tauopathy model: inhibition of TAU-induced cytotoxicity (LDH) after retinoic acid differentiation. The class given is cell-based. The conditions noted are these: Homo sapiens, 168 h, inhibition of TAU-induced toxicity, 7 days retinoic acid, LDH readout. An excerpt: A TAU expression plasmid was constructed by sub-cloning the cDNA encoding for human TAU-P301L protein, wherein proline at position 301 is substituted by a leucine residue, into mammalian expression vector pcDNA3.1 resulting in the plasmid pcDNA3.1-TAUP301L. Plasmids pcDNA3.1 and pcDNA3.1-TAU P301L were transfected into human neuroblastoma cells (BE-M17; ATCC No. CRL2267™) using lipofectamine reagent and subsequently, independent clonal cell lines with the plasmids stably integrated into the genome were selected by antibiotic resistance selection (Geneticin (G418)), resulting in cell lines M17.pcDNA3 and M17_3TAUP301L. Expression of the TAUP301L gene in the M17_3TAUP301L cells was confirmed by Western blot analysis.
Differentiation of the cells with RA leads to phosphorylation and subsequent aggregation of TAU, inducing a tauopathy in these cells. Cytotoxicity of cells was measured by quantification of lactate dehydrogenase (LDH) levels. In dead cells LDH is leaked out of the cells into the medium due to a loss of plasma-membrane integrity.
Briefly, 3 days preceeding the experiment pre-cultures of M17.pcDNA3 and M17_3TAU(P301L) cells were prepared, starting from a stock culture, at a density of 50.000-100.000 cells/cm2 in detection medium (Optimem Reduced Serum without phenol red (Gibco, Cat. 31985-047) supplemented with 1% fetal calf serum (FCS), 1 mM sodium pyruvate, 1× non-essential amino acids (NEAR), 500 μg/ml G418 and 0.5× antibiotic/antimycotic (ABAM)). At the day of the experiment these precultures were diluted to ˜0, 1.106 cells/ml in detection medium without FCS and 60 μL of this suspension is dispensed per well into a 96-well microtiter plate. After 3 hours of incubation at 37° C./5% CO2 an equal volume of detection medium containing 2.5 μM RA was added and subsequently incubated for 7 days at 37° C./5% CO2. After 7 days, LDH activity was determined using the Promega Cytotox 96 Non-Radioactive cytotoxicity assay (Cat. G1780), according the manufacturer's instructions. Cytotoxicity is measured as the ratio of LDH increase in the supernatant divided by the LDH increase in the total cell suspension (sum of the LDH measured in cells and supernatant).
The M17_3TAU(P301L) cell line makes it possible to assess the ability of novel compounds to inhibit TAU-induced cytotoxicity. […] Compounds were tested for their ability to hamper TAU-induced toxicity at different concentrations, ranging from low non-effective concentrations to high potent concentrations. Afterwards, the dose-dependent inhibition curve was used to calculate their EC50 (Table III).

A short description of series [1]: Lipophilicity (logD) by Carrier mediated distribution system (CAMDIS). The class given is physicochemical. As to the method: Lipophilicity data were measured with the Carrier mediated distribution system (CAMDIS) as described in EP1705474A1.
The nature of series [2]: Microsomal stability assay, rat liver microsomes (intrinsic clearance). The class given is in vitro ADME. As to the method: (§1) Microsomal Stability Testing—Assay Description
(§2) The microsomal stability assay measures the rate of disappearance of a test compound from an incubation containing human or animal liver microsomes and metabolic cofactors (typically NADPH). The assay is primarily used for ranking the relative CYP-mediated metabolism propensities of compounds within a chemical series and as a guide to selecting sufficiently stable compounds for pharmacokinetics and pharmacodynamics experiments. [In addition to CYPs, microsomally located enzymes which also make use of NADPH (such as […]) and those which require no cofactors (such as carboxylesterases) are active.]
(§3) Incubations are performed in 96-well deep-well plates with a final incubation volume of 600 μL. Incubations contain (finally) 1-20 μM test compound, 0.5 mg/mL liver microsomes (typically human, rat or mouse) and NADPH regenerating system. 50 μL aliquots are removed after 1, 3, 6, 9, 15, 25, 35 and 45 minutes and quenched in 150 μL acetonitrile containing internal standard. Samples are then cooled and centrifuged before analysis by LC-MS/MS.
(§4) Log peak area ratio (test compound peak area/internal standard peak area) is plotted against incubation time and a linear fit made to the data with emphasis upon the initial rate of compound disappearance. […]

Series [3] in a line: Microsomal stability assay, human liver microsomes (intrinsic clearance). The conditions noted are these: read-out: CLint. (Hum). The class given is in vitro ADME. Here is the method:
as §1, §2, §3, §4

Structures are written as SMILES.

As a reminder, the EC50 is the concentration needed to bring the measured effect to its halfway point. A lower EC50 goes with an effect from little substance. The term logD denotes the decadic logarithm of the distribution of all forms, ionised or not, between an organic phase and buffer at a given pH. Read a high logD as a more lipophilic compound. Take `FC1(F)CCN(c2nsc(N3CCN(CCc4ccc(Cl)cc4)CC3)n2)CC1` [Example 2, 1-[2-(4-Chloro-phenyl)-ethyl]-4-[3-(4,4-difluoro-piperidin-1-yl)-[1,2,4]thiadiazol-5-yl]-piperazine]: a half-maximal effect in the series on M17_3TAU(P301L) cells (EC50) was put at 53.6 nM. The pH-dependent lipophilicity (logD) in series [1] stood at 2.93. Also, the figures for the microsomal CLint in series [2] and in series [3] were 80 µL/min/mg and 17 µL/min/mg, respectively.

In the case of `Clc1ccc(CCN2CCN(c3nc(Cc4ccc(Cl)cc4)ns3)CC2)cc1` [reference compound], the microsomal CLint in series [2] was determined as 48 µL/min/mg; in series [3], 43 µL/min/mg.
